Key:
Assay type in all cases: biochemical
JAK2-JH1JH2 = JAK2-JH1JH2 (Homo sapiens (Human), UniProt O60674); assay: Enzymatic inhibition assay (RapidFire HTMS), JAK2; conditions: 30 μM ATP, 40 μM substrate
How it was run: (§1)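 Quenched with 0.5% TFA plus internal-standard peptide; phosphorylated product quantified by RapidFire C4 SPE–ESI-MS, 11-point 1:3 or 1:4 dilutions in duplicate.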

JAK3-JH1JH2 = JAK3-JH1JH2 (Homo sapiens (Human), UniProt P52333); assay: Enzymatic inhibition assay (RapidFire HTMS), JAK3; conditions: 150 μM ATP, 40 μM substrate
How it was run: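 Compounds tested in duplicate over 11-point 1:3 or 1:4 dilution series; no-enzyme wells as negative control. After 45 min at 25 °C, TFA quench with internal standard, and phosphorylated product quantified by RapidFire–QTrap mass spectrometry relative to the uninhibited reaction.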

Tyk2-JH1JH2 = Tyk2-JH1JH2 (Homo sapiens (Human), UniProt P29597, C1142A/C936A); assay: Enzymatic inhibition assay (RapidFire HTMS), Tyk2; conditions: 50 μM ATP, 200 μM substrate
How it was run: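 Compounds were tested in duplicate as 11-point 1:3 or 1:4 DMSO dilutions (≤0.25% DMSO final) in 20 μL reactions at 25 °C for 90 min, with Tyk2 pre-incubated 30 min with 2 mM ATP. Reactions were quenched with TFA plus internal standard peptide, and phosphorylated product was quantified by RapidFire C4 SPE–ESI MS.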

JAK1-JH1JH2 = JAK1-JH1JH2 (Homo sapiens (Human), UniProt P23458); assay: Enzymatic inhibition assay (RapidFire HTMS), JAK1; conditions: 12.5 μM ATP, 200 μM substrate; read-out: JAK1-JH2JH1 IC50
How it was run: as §1

Sequence of JAK1-JH1JH2 (P23458 574-1154): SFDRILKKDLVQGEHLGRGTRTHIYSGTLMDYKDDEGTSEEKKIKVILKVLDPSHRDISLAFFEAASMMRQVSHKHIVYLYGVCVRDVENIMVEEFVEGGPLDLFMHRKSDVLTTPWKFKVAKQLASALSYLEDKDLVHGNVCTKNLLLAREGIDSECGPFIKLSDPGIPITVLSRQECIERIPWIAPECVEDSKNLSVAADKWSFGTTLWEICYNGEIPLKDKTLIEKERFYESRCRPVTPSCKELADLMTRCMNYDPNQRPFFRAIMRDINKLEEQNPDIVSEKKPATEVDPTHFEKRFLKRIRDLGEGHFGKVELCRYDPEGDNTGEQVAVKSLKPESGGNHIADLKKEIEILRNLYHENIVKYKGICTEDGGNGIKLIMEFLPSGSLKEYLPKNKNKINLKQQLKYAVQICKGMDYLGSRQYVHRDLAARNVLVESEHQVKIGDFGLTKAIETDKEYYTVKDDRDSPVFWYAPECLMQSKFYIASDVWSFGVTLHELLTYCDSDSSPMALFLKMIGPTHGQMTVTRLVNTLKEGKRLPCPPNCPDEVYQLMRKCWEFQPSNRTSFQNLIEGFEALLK
Sequence of JAK3-JH1JH2 (P52333 512-1124): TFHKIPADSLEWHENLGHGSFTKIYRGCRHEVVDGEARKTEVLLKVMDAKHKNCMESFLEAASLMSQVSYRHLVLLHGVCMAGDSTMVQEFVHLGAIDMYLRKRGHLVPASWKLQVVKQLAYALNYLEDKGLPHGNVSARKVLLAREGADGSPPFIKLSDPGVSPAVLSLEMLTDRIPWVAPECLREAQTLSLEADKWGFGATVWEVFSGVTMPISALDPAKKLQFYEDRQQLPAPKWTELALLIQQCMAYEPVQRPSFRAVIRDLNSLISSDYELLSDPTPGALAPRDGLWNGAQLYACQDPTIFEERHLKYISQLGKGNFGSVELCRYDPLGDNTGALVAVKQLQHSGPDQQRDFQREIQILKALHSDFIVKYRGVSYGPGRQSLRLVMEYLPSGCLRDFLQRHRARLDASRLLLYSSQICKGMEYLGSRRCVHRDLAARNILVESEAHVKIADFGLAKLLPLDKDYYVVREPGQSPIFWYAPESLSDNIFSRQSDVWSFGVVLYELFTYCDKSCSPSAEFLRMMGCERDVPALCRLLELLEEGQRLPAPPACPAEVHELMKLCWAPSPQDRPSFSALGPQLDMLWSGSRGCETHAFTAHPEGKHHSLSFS
Sequence of JAK2-JH1JH2 (O60674 532-1132): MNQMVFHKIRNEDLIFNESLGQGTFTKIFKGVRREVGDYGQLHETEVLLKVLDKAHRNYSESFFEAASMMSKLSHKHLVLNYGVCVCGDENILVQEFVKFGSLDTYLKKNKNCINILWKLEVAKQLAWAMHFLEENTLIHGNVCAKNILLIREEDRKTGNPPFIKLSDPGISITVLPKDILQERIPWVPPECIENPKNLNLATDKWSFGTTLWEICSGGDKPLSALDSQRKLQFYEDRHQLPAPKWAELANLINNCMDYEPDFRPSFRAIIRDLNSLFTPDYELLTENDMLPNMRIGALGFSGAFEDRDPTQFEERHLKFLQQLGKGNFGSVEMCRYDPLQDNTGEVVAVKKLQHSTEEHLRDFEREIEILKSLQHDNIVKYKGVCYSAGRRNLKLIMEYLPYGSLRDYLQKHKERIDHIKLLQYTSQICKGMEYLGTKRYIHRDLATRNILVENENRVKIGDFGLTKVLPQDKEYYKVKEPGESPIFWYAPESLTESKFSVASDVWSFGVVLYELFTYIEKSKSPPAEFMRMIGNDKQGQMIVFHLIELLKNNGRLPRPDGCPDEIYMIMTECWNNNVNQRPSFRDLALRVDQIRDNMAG
Sequence of Tyk2-JH1JH2 (P29597 580-1182 C936A/C1142A): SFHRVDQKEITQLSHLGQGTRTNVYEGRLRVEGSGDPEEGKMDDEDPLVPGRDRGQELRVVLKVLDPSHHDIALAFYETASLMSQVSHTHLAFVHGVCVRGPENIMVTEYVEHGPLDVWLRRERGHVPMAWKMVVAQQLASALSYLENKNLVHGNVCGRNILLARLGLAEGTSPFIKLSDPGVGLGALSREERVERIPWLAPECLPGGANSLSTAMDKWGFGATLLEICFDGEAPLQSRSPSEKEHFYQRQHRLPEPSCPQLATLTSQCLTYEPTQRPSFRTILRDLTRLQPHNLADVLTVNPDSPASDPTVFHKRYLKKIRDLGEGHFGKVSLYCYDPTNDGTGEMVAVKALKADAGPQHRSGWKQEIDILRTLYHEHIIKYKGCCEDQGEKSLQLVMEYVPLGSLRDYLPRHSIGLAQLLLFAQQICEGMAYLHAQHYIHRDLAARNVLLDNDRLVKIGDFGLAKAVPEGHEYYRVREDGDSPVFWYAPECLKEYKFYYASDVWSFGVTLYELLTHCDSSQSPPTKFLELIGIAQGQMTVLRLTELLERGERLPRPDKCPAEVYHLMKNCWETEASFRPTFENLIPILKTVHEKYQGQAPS

N#CC[C@H]1CC[C@H](n2c(CO/N=C(\N)C3CC3)nc3cnc4[nH]ccc4c32)CC1 [Ex. 151, (Z*)—N-((1-((1r,4r)-4-(Cyanomethyl)cyclohexyl)-1,6-dihydroimidazo[4,5-d]pyrrolo[2,3-b]pyridin-2-yl)methoxy)cyclopropanecarboximidamide]
IC50 (JAK2-JH1JH2): 10.6 nM | IC50 (JAK3-JH1JH2): 103 nM | IC50 (Tyk2-JH1JH2): 37.1 nM | IC50 (JAK1-JH1JH2): 1.4 nM

N#CC[C@H]1CC[C@H](n2c(COC(=O)NCC3CCCCC3)nc3cnc4[nH]ccc4c32)CC1 [Ex. 146, (1-((1r,4r)-4-(Cyanomethyl)cyclohexyl)-1,6-dihydroimidazo[4,5-d]pyrrolo[2,3-b]pyridin-2-yl)methyl (cyclohexylmethyl)carbamate]
IC50 (JAK2-JH1JH2): 18 nM | IC50 (JAK3-JH1JH2): 319 nM | IC50 (Tyk2-JH1JH2): 11.3 nM | IC50 (JAK1-JH1JH2): 1.1 nM

N#CC[C@H]1CC[C@H](n2c(CC(=O)Nc3cccnc3)nc3cnc4[nH]ccc4c32)CC1 [Ex. 111, 2-(1-((1r,4r)-4-(Cyanomethyl)cyclohexyl)-1,6-dihydroimidazo[4,5-d]pyrrolo[2,3-b]pyridin-2-yl)-N-(pyridin-3-yl)acetamide]
IC50 (JAK2-JH1JH2): 4 nM | IC50 (JAK3-JH1JH2): 68 nM | IC50 (Tyk2-JH1JH2): 6.3 nM | IC50 (JAK1-JH1JH2): 0.6 nM

N#CC[C@H]1CC[C@H](n2c(CO/N=C(\N)CC3CC3)nc3cnc4[nH]ccc4c32)CC1 [Ex. 112, (Z)—N-((1-((1r,4r)-4-(Cyanomethyl)cyclohexyl)-1,6-dihydroimidazo[4,5-d]pyrrolo[2,3-b]pyridin-2-yl)methoxy)-2-cyclopropylacetimidamide]
IC50 (JAK2-JH1JH2): 3.6 nM | IC50 (JAK3-JH1JH2): 161 nM | IC50 (Tyk2-JH1JH2): 40.8 nM | IC50 (JAK1-JH1JH2): 0.6 nM

CC(=N)NCc1nc2cnc3[nH]ccc3c2n1[C@H]1CC[C@H](CC#N)CC1 [Ex. 86, N-((1-((1r,4r)-4-(Cyanomethyl)cyclohexyl)-1,6-dihydroimidazo[4,5-d]pyrrolo[2,3-b]pyridin-2-yl)methyl)acetimidamide]
IC50 (JAK2-JH1JH2): 14 nM | IC50 (JAK3-JH1JH2): 2270 nM | IC50 (Tyk2-JH1JH2): 2.6 nM | IC50 (JAK1-JH1JH2): 0.4 nM

N#CC[C@H]1CC[C@H](n2c(-c3cnn(CC(=O)NC4CC4)c3)nc3cnc4[nH]ccc4c32)CC1 [Ex. 185, 2-(4-(1-((1r,4r)-4-(Cyanomethyl)cyclohexyl)-1,6-dihydroimidazo[4,5-d]pyrrolo[2,3-b]pyridin-2-yl)-1H-pyrazol-1-yl)-N-cyclopropylacetamide]
IC50 (JAK2-JH1JH2): 19.8 nM | IC50 (JAK3-JH1JH2): 150 nM | IC50 (Tyk2-JH1JH2): 36.4 nM | IC50 (JAK1-JH1JH2): 2.1 nM

N#CC[C@H]1CC[C@H](n2c(-c3ncc[nH]3)nc3cnc4[nH]ccc4c32)CC1 [Ex. 56, 2-((1r,4r)-4-(2-(1H-Imidazol-2-yl)imidazo[4,5-d]pyrrolo[2,3-b]pyridin-1(6H)-yl)cyclohexyl)acetonitrile]
IC50 (JAK2-JH1JH2): 1.9 nM | IC50 (JAK3-JH1JH2): 32.9 nM | IC50 (Tyk2-JH1JH2): 7.2 nM | IC50 (JAK1-JH1JH2): 0.2 nM

N#CC[C@H]1CC[C@H](n2c(C(=O)NC3CC3)nc3cnc4[nH]ccc4c32)CC1 [Ex. 175, 1-((1r,4r)-4-(Cyanomethyl)cyclohexyl)-N-cyclopropyl-1,6-dihydroimidazo[4,5-d]pyrrolo[2,3-b]pyridine-2-carboxamide]
IC50 (JAK2-JH1JH2): 27.8 nM | IC50 (JAK3-JH1JH2): 839 nM | IC50 (Tyk2-JH1JH2): 49.5 nM | IC50 (JAK1-JH1JH2): 2.5 nM

N#CC[C@H]1CC[C@H](n2c(CC(=O)NCc3cnccn3)nc3cnc4[nH]ccc4c32)CC1 [Ex. 35, 2-(1-((1r,4r)-4-(Cyanomethyl)cyclohexyl)-1,6-dihydroimidazo[4,5-d]pyrrolo[2,3-b]pyridin-2-yl)-N-(pyrazin-2-ylmethyl)acetamide]
IC50 (JAK2-JH1JH2): 3.6 nM | IC50 (JAK3-JH1JH2): 107 nM | IC50 (Tyk2-JH1JH2): 4.5 nM | IC50 (JAK1-JH1JH2): 0.2 nM

N#CC[C@H]1CC[C@H](n2c(-c3ccc(C#N)cc3)nc3cnc4[nH]ccc4c32)CC1 [Ex. 96, 4-(1-((1r,4r)-4-(Cyanomethyl)cyclohexyl)-1,6-dihydroimidazo[4,5-d]pyrrolo[2,3-b]pyridin-2-yl)benzonitrile]
IC50 (JAK2-JH1JH2): 33.8 nM | IC50 (JAK3-JH1JH2): 460 nM | IC50 (Tyk2-JH1JH2): 49.6 nM | IC50 (JAK1-JH1JH2): 0.5 nM

N#CC[C@H]1CC[C@H](n2c(CC(=O)NCCOCCOCCN)nc3cnc4[nH]ccc4c32)CC1 [Ex. 193, N-(2-(2-(2-Aminoethoxy)ethoxy)ethyl)-2-(1-((1r,4r)-4-(cyanomethyl)cyclohexyl)-1,6-dihydroimidazo[4,5-d]pyrrolo[2,3-b]pyridin-2-yl)acetamide]
IC50 (JAK2-JH1JH2): 10.1 nM | IC50 (JAK3-JH1JH2): 69.5 nM | IC50 (Tyk2-JH1JH2): 5.3 nM | IC50 (JAK1-JH1JH2): 0.2 nM

N#CC[C@H]1CC[C@H](n2c(C(=O)N3CCC(C#N)CC3)nc3cnc4[nH]ccc4c32)CC1 [Ex. 177, 1-(1-((1r,4r)-4-(Cyanomethyl)cyclohexyl)-1,6-dihydroimidazo[4,5-d]pyrrolo[2,3-b]pyridine-2-carbonyl)piperidine-4-carbonitrile]
IC50 (JAK2-JH1JH2): 161 nM | IC50 (JAK3-JH1JH2): 2370 nM | IC50 (Tyk2-JH1JH2): 102 nM | IC50 (JAK1-JH1JH2): 2.7 nM

N#CC[C@H]1CC[C@H](n2c(CC(=O)N3CC[C@H](O)C3)nc3cnc4[nH]ccc4c32)CC1 [Ex. 42, 2-((1S,4r)-4-(2-(2-((S)-3-Hydroxypyrrolidin-1-yl)-2-oxoethyl)imidazo[4,5-d]pyrrolo[2,3-b]pyridin-1(6H)-yl)cyclohexyl)acetonitrile]
IC50 (JAK2-JH1JH2): 24.4 nM | IC50 (JAK3-JH1JH2): 439 nM | IC50 (Tyk2-JH1JH2): 7.8 nM | IC50 (JAK1-JH1JH2): 0.2 nM

N#CC[C@H]1CC[C@H](n2c(CC(=O)N3CCC(C#N)CC3)nc3cnc4[nH]ccc4c32)CC1 [Ex. 105, 1-(2-(1-((1r,4r)-4-(Cyanomethyl)cyclohexyl)-1,6-dihydroimidazo[4,5-d]pyrrolo[2,3-b]pyridin-2-yl)acetyl)piperidine-4-carbonitrile]
IC50 (JAK2-JH1JH2): 19.4 nM | IC50 (JAK3-JH1JH2): 204 nM | IC50 (Tyk2-JH1JH2): 6.9 nM | IC50 (JAK1-JH1JH2): 0.6 nM

N#CC[C@H]1CC[C@H](n2c(CC(=O)NCC3(O)COC3)nc3cnc4[nH]ccc4c32)CC1 [Ex. 24, 2-(1-((1r,4r)-4-(Cyanomethyl)cyclohexyl)-1,6-dihydroimidazo[4,5-d]pyrrolo[2,3-b]pyridin-2-yl)-N-((3-hydroxyoxetan-3-yl)methyl)acetamide]
IC50 (JAK2-JH1JH2): 4.9 nM | IC50 (JAK3-JH1JH2): 57.5 nM | IC50 (Tyk2-JH1JH2): 3.3 nM | IC50 (JAK1-JH1JH2): 0.1 nM

N#CC[C@H]1CC[C@H](n2c(CC(=O)Nc3ccc(C#N)cc3)nc3cnc4[nH]ccc4c32)CC1 [Ex. 200, 2-(1-((1r,4r)-4-(Cyanomethyl)cyclohexyl)-1,6-dihydroimidazo[4,5-d]pyrrolo[2,3-b]pyridin-2-yl)-N-(4-cyanophenyl)acetamide]
IC50 (JAK2-JH1JH2): < 3.5 nM | IC50 (JAK3-JH1JH2): 13.7 nM | IC50 (Tyk2-JH1JH2): 12.5 nM | IC50 (JAK1-JH1JH2): < 4 nM

N#CCC12CCC(n3c(CC(=O)N4CCCCC4)nc4cnc5[nH]ccc5c43)(CC1)CC2 [Ex. 205, 2-(4-(2-(2-Oxo-2-(piperidin-1-yl)ethyl)imidazo[4,5-d]pyrrolo[2,3-b]pyridin-1(6H)-yl)bicyclo[2.2.2]octan-1-yl)acetonitrile]
IC50 (JAK2-JH1JH2): 487 nM | IC50 (JAK3-JH1JH2): 439 nM | IC50 (Tyk2-JH1JH2): 606 nM | IC50 (JAK1-JH1JH2): 5.3 nM

N#CC[C@H]1CC[C@H](n2c(CNC(=O)CC3CC3)nc3cnc4[nH]ccc4c32)CC1 [Ex. 94, N-((1-((1r,4r)-4-(Cyanomethyl)cyclohexyl)-1,6-dihydroimidazo[4,5-d]pyrrolo[2,3-b]pyridin-2-yl)methyl)-2-cyclopropylacetamide]
IC50 (JAK2-JH1JH2): 20.5 nM | IC50 (JAK3-JH1JH2): 264 nM | IC50 (Tyk2-JH1JH2): 12.1 nM | IC50 (JAK1-JH1JH2): 0.5 nM

COCC(C)NC(=O)c1nc2cnc3[nH]ccc3c2n1[C@H]1CC[C@H](CC#N)CC1 (stereo partly drawn) [Ex. 179, 1-((1r,4r)-4-(Cyanomethyl)cyclohexyl)-N-(1-methoxypropan-2-yl)-1,6-dihydroimidazo[4,5-d]pyrrolo[2,3-b]pyridine-2-carboxamide]
IC50 (JAK2-JH1JH2): 20.9 nM | IC50 (JAK3-JH1JH2): 641 nM | IC50 (Tyk2-JH1JH2): 30 nM | IC50 (JAK1-JH1JH2): 1.4 nM

CNC(=O)Cc1nc2cnc3[nH]ccc3c2n1C12CCC(CC#N)(CC1)CC2 [Ex. 209, 2-(1-(4-(Cyanomethyl)bicyclo[2.2.2]octan-1-yl)-1,6-dihydroimidazo[4,5-d]pyrrolo[2,3-b]pyridin-2-yl)-N-methylacetamide]
IC50 (JAK2-JH1JH2): 520 nM | IC50 (JAK3-JH1JH2): 604 nM | IC50 (Tyk2-JH1JH2): 651 nM | IC50 (JAK1-JH1JH2): 18.9 nM

N#CC[C@H]1CC[C@H](NC(=O)Cc2nc3cnc4[nH]ccc4c3n2[C@H]2CC[C@H](CC#N)CC2)CC1 [Ex. 19, N-((1r,4r)-4-(Cyanomethyl)cyclohexyl)-2-(1-((1r,4r)-4-(cyanomethyl)cyclohexyl)-1,6-dihydroimidazo[4,5-d]pyrrolo[2,3-b]pyridin-2-yl)acetamide]
IC50 (JAK2-JH1JH2): 2.4 nM | IC50 (JAK3-JH1JH2): 31.8 nM | IC50 (Tyk2-JH1JH2): 4.4 nM | IC50 (JAK1-JH1JH2): 0.1 nM

N#CC[C@H]1CC[C@H](n2c(CNC(=O)c3cn[nH]c3)nc3cnc4[nH]ccc4c32)CC1 [Ex. 144, N-((1-((1r,4r)-4-(Cyanomethyl)cyclohexyl)-1,6-dihydroimidazo[4,5-d]pyrrolo[2,3-b]pyridin-2-yl)methyl)-1H-pyrazole-4-carboxamide]
IC50 (JAK2-JH1JH2): 43.1 nM | IC50 (JAK3-JH1JH2): 376 nM | IC50 (Tyk2-JH1JH2): 16.2 nM | IC50 (JAK1-JH1JH2): 1 nM

N#CC[C@H]1CC[C@H](n2c(C(=O)N3CCC(O)CC3)nc3cnc4[nH]ccc4c32)CC1 [Ex. 181, 2-((1r,4r)-4-(2-(4-Hydroxypiperidine-1-carbonyl)imidazo[4,5-d]pyrrolo[2,3-b]pyridin-1(6H)-yl)cyclohexyl)acetonitrile]
IC50 (JAK2-JH1JH2): 331 nM | IC50 (JAK3-JH1JH2): 6300 nM | IC50 (Tyk2-JH1JH2): 159 nM | IC50 (JAK1-JH1JH2): 5.4 nM

N#CC[C@H]1CC[C@H](n2c(CNS(=O)(=O)C3CCCCC3)nc3cnc4[nH]ccc4c32)CC1 [Ex. 141, N-((1-((1r,4r)-4-(Cyanomethyl)cyclohexyl)-1,6-dihydroimidazo[4,5-d]pyrrolo[2,3-b]pyridin-2-yl)methyl)cyclohexanesulfonamide]
IC50 (JAK2-JH1JH2): 95.8 nM | IC50 (JAK3-JH1JH2): 4070 nM | IC50 (Tyk2-JH1JH2): 66.7 nM | IC50 (JAK1-JH1JH2): 0.9 nM

— patent US10981911B2, “Imidazopyrrolopyridine as inhibitors of the JAK family of kinases” (Janssen Pharmaceutica NV, priority 2016, dated 2021)
